Residues, ends and D or L forms follow the SMILES beside them. *: point of attachment. FITC = O=C1OC2(c3ccc(O)cc3Oc3cc(O)ccc32)c2ccc(NC(=S)*)cc21; βAla = NCCC(=O)O
Target: T1, Ub (Homo sapiens, UniProt P0CG48)
Test: not given
Details: read-out: dissociation constant of Ub:UIM-1 complex; cited from earlier work
Text: We selected the UIM-1 sequence as an experimental model system because it is well characterized, having both the reported dissociation constant and NMR structure (pdb: 1q0w, Figure 1a,c). […] The UIM-1 sequence binds to Ub primarily through a series of hydrophobic contacts around the characteristic “AxxxS” UIM pattern of alanine and serine residues spaced four positions apart. Further, polar and salt bridge contacts may also stabilize the complex. […] The peptide concentration was mainta ...

Compound	Kd
UIM-1: first UIM of the Vps27 protein; literature Kd from a slightly longer variant of the peptide	277 µM

Target: T1, Ub
Test: Fluorescence polarization (FP) titration of labelled peptide against Ub
Details: 1c (C-terminal Lys side-chain label) relative to 1a (N-terminal label), from FP Kd

reduction in binding energy	Compound
6.5 kJ mol^–1	CC[C@H](C)[C@H](NC(=O)[C@H](C)NC(=O)[C@H](CCCCN)NC(=O)[C@H](CCCNC(=N)N)NC(=O)[C@@H](NC(=O)[C@H](CC(C)C)NC(=O)[C@H](CCC(=O)O)NC(=O)[C@H](CCC(=O)O)NC(=O)[C@H](CCC(=O)O)NC(=O)[C@H](CC(=O)O)NC(=O)[C@H](CCC(=O)O)NC(=O)CNC(C)=O)[C@@H](C)CC)C(=O)N[C@@H](CCC(=O)O)C(=O)N[C@@H](CC(C)C)C(=O)N[C@@H](CO)C(=O)N[C@@H](CC(C)C)C(=O)N[C@@H](CCCCN)C(=O)N[C@@H](CCC(=O)O)C(=O)N[C@@H](CO)C(=O)NCC(=O)N[C@@H](CCCCNC(=S)Nc1ccc2c(c1)C(=O)OC21c2ccc(O)cc2Oc2cc(O)ccc21)C(N)=O [1c] (Ac-GEDEEELIRKAIELSLKESGK(FITC)-NH2)

Same assay, conditions: relative to 1a (UIM-1), from FP Kd; positive = weaker binding

Compound	ΔΔG for binding Ub
CC[C@H](C)[C@H](NC(=O)[C@H](C)NC(=O)[C@H](CCCCN)NC(=O)[C@H](CCCNC(=N)N)NC(=O)[C@@H](NC(=O)[C@H](CCC(=O)O)NC(=O)[C@H](CCC(=O)O)NC(=O)[C@H](CCC(=O)O)NC(=O)[C@H](CCC(=O)O)NC(=O)[C@H](CC(=O)O)NC(=O)[C@H](CCC(=O)O)NC(=O)CNC(=O)CCNC(=S)Nc1ccc2c(c1)C(=O)OC21c2ccc(O)cc2Oc2cc(O)ccc21)[C@@H](C)CC)C(=O)N[C@@H](CCC(=O)O)C(=O)N[C@@H](CC(C)C)C(=O)N[C@@H](CO)C(=O)N[C@@H](CC(C)C)C(=O)N[C@@H](CCCCN)C(=O)N[C@@H](CCC(=O)O)C(=O)N[C@@H](CO)C(=O)NCC(N)=O [7a] ({FITC-βAla}-GEDEEEEIRKAIELSLKESG-NH2)	2.8 kJ/mol
CC[C@H](C)[C@H](NC(=O)[C@H](C)NC(=O)[C@H](CCCCN)NC(=O)[C@H](CCCNC(=N)N)NC(=O)[C@@H](NC(=O)[C@H](CC(C)C)NC(=O)[C@H](CCC(=O)O)NC(=O)[C@H](CCC(=O)O)NC(=O)[C@H](CCC(=O)O)NC(=O)[C@H](CC(=O)O)NC(=O)[C@H](CCC(=O)O)NC(=O)CNC(=O)CCNC(=S)Nc1ccc2c(c1)C(=O)OC21c2ccc(O)cc2Oc2cc(O)ccc21)[C@@H](C)CC)C(=O)N[C@@H](CCC(=O)O)C(=O)N[C@@H](CCC(=O)O)C(=O)N[C@@H](CO)C(=O)N[C@@H](CC(C)C)C(=O)N[C@@H](CCCCN)C(=O)N[C@@H](CCC(=O)O)C(=O)N[C@@H](CO)C(=O)NCC(N)=O [10a] ({FITC-βAla}-GEDEEELIRKAIEESLKESG-NH2)	-0.3 kJ/mol
CC[C@H](C)[C@H](NC(=O)[C@H](C)NC(=O)[C@H](CCCCN)NC(=O)[C@H](CCCNC(=N)N)NC(=O)[C@@H](NC(=O)[C@H](CC(C)C)NC(=O)[C@H](CCC(=O)O)NC(=O)[C@H](CCC(=O)O)NC(=O)[C@H](CCC(=O)O)NC(=O)[C@H](CC(=O)O)NC(=O)[C@H](CCC(=O)O)NC(=O)CNC(=O)CCNC(=S)Nc1ccc2c(c1)C(=O)OC21c2ccc(O)cc2Oc2cc(O)ccc21)[C@@H](C)CC)C(=O)N[C@@H](CCC(=O)O)C(=O)N[C@@H](CC(C)C)C(=O)N[C@@H](CO)C(=O)N[C@@H](CCC(=O)O)C(=O)N[C@@H](CCCCN)C(=O)N[C@@H](CCC(=O)O)C(=O)N[C@@H](CO)C(=O)NCC(N)=O [11a] ({FITC-βAla}-GEDEEELIRKAIELSEKESG-NH2)	4.5 kJ/mol

Results, then the compound that gave them:

ΔΔG for binding Ub	Compound
7.9 kJ/mol	CC[C@H](C)[C@H](NC(=O)[C@H](C)NC(=O)[C@H](CCCCN)NC(=O)[C@H](CCCNC(=N)N)NC(=O)[C@H](C)NC(=O)[C@H](CC(C)C)NC(=O)[C@H](CCC(=O)O)NC(=O)[C@H](CCC(=O)O)NC(=O)[C@H](CCC(=O)O)NC(=O)[C@H](CC(=O)O)NC(=O)[C@H](CCC(=O)O)NC(=O)CNC(=O)CCNC(=S)Nc1ccc2c(c1)C(=O)OC21c2ccc(O)cc2Oc2cc(O)ccc21)C(=O)N[C@@H](CCC(=O)O)C(=O)N[C@@H](CC(C)C)C(=O)N[C@@H](CO)C(=O)N[C@@H](CC(C)C)C(=O)N[C@@H](CCCCN)C(=O)N[C@@H](CCC(=O)O)C(=O)N[C@@H](CO)C(=O)NCC(N)=O [3a] ({FITC-βAla}-GEDEEELARKAIELSLKESG-NH2)
7.0 kJ/mol	CC[C@H](C)[C@H](NC(=O)[C@H](CC(C)C)NC(=O)[C@H](CCC(=O)O)NC(=O)[C@H](CCC(=O)O)NC(=O)[C@H](CCC(=O)O)NC(=O)[C@H](CC(=O)O)NC(=O)[C@H](CCC(=O)O)NC(=O)CNC(=O)CCNC(=S)Nc1ccc2c(c1)C(=O)OC21c2ccc(O)cc2Oc2cc(O)ccc21)C(=O)N[C@@H](CCCNC(=N)N)C(=O)N[C@@H](CCCCN)C(=O)N[C@@H](C)C(=O)N[C@@H](C)C(=O)N[C@@H](CCC(=O)O)C(=O)N[C@@H](CC(C)C)C(=O)N[C@@H](CO)C(=O)N[C@@H](CC(C)C)C(=O)N[C@@H](CCCCN)C(=O)N[C@@H](CCC(=O)O)C(=O)N[C@@H](CO)C(=O)NCC(N)=O [4a] ({FITC-βAla}-GEDEEELIRKAAELSLKESG-NH2)
1.0 kJ/mol	CC[C@H](C)[C@H](NC(=O)[C@H](C)NC(=O)[C@H](CCCCN)NC(=O)[C@H](CCCNC(=N)N)NC(=O)[C@@H](NC(=O)[C@H](CC(C)C)NC(=O)[C@H](CCC(=O)O)NC(=O)[C@H](CCC(=O)O)NC(=O)[C@H](CCC(=O)O)NC(=O)[C@H](CC(=O)O)NC(=O)[C@H](CCC(=O)O)NC(=O)CNC(=O)CCNC(=S)Nc1ccc2c(c1)C(=O)OC21c2ccc(O)cc2Oc2cc(O)ccc21)[C@@H](C)CC)C(=O)N[C@@H](CCC(=O)O)C(=O)N[C@@H](C)C(=O)N[C@@H](CO)C(=O)N[C@@H](CC(C)C)C(=O)N[C@@H](CCCCN)C(=O)N[C@@H](CCC(=O)O)C(=O)N[C@@H](CO)C(=O)NCC(N)=O [5a] ({FITC-βAla}-GEDEEELIRKAIEASLKESG-NH2)
4.7 kJ/mol	CC[C@H](C)[C@H](NC(=O)[C@H](C)NC(=O)[C@H](CCCCN)NC(=O)[C@H](CCCNC(=N)N)NC(=O)[C@@H](NC(=O)[C@H](CC(C)C)NC(=O)[C@H](CCC(=O)O)NC(=O)[C@H](CCC(=O)O)NC(=O)[C@H](CCC(=O)O)NC(=O)[C@H](CC(=O)O)NC(=O)[C@H](CCC(=O)O)NC(=O)CNC(=O)CCNC(=S)Nc1ccc2c(c1)C(=O)OC21c2ccc(O)cc2Oc2cc(O)ccc21)[C@@H](C)CC)C(=O)N[C@@H](CCC(=O)O)C(=O)N[C@@H](CC(C)C)C(=O)N[C@@H](CO)C(=O)N[C@@H](C)C(=O)N[C@@H](CCCCN)C(=O)N[C@@H](CCC(=O)O)C(=O)N[C@@H](CO)C(=O)NCC(N)=O [6a] ({FITC-βAla}-GEDEEELIRKAIELSAKESG-NH2)
2.1 kJ/mol	CC[C@H](C)[C@H](NC(=O)[C@H](C)NC(=O)[C@H](CCCCN)NC(=O)[C@H](CCCNC(=N)N)NC(=O)[C@H](Cc1ccccc1)NC(=O)[C@H](CC(C)C)NC(=O)[C@H](CCC(=O)O)NC(=O)[C@H](CCC(=O)O)NC(=O)[C@H](CCC(=O)O)NC(=O)[C@H](CC(=O)O)NC(=O)[C@H](CCC(=O)O)NC(=O)CNC(=O)CCNC(=S)Nc1ccc2c(c1)C(=O)OC21c2ccc(O)cc2Oc2cc(O)ccc21)C(=O)N[C@@H](CCC(=O)O)C(=O)N[C@@H](CC(C)C)C(=O)N[C@@H](CO)C(=O)N[C@@H](CC(C)C)C(=O)N[C@@H](CCCCN)C(=O)N[C@@H](CCC(=O)O)C(=O)N[C@@H](CO)C(=O)NCC(N)=O [8a] ({FITC-βAla}-GEDEEELFRKAIELSLKESG-NH2)
2.9 kJ/mol	CC[C@H](C)[C@H](NC(=O)[C@H](CC(C)C)NC(=O)[C@H](CCC(=O)O)NC(=O)[C@H](CCC(=O)O)NC(=O)[C@H](CCC(=O)O)NC(=O)[C@H](CC(=O)O)NC(=O)[C@H](CCC(=O)O)NC(=O)CNC(=O)CCNC(=S)Nc1ccc2c(c1)C(=O)OC21c2ccc(O)cc2Oc2cc(O)ccc21)C(=O)N[C@@H](CCCNC(=N)N)C(=O)N[C@@H](CCCCN)C(=O)N[C@@H](C)C(=O)N[C@@H](CC(C)C)C(=O)N[C@@H](CCC(=O)O)C(=O)N[C@@H](CC(C)C)C(=O)N[C@@H](CO)C(=O)N[C@@H](CC(C)C)C(=O)N[C@@H](CCCCN)C(=O)N[C@@H](CCC(=O)O)C(=O)N[C@@H](CO)C(=O)NCC(N)=O [9a] ({FITC-βAla}-GEDEEELIRKALELSLKESG-NH2)

Same assay, conditions: relative to 1a, from FP Kd

Compound	additional binding energy
CC[C@H](C)[C@H](NC(=O)[C@H](C)NC(=O)[C@H](CCCCN)NC(=O)[C@H](CCCNC(=N)N)NC(=O)[C@@H](NC(=O)[C@H](CC(C)C)NC(=O)[C@H](CCC(=O)O)NC(=O)[C@H](CCC(=O)O)NC(=O)[C@H](CCC(=O)O)NC(=O)[C@H](CC(=O)O)NC(=O)[C@H](CCC(=O)O)NC(=O)CNC(=O)CCNC(=S)Nc1ccc2c(c1)C(=O)OC21c2ccc(O)cc2Oc2cc(O)ccc21)[C@@H](C)CC)C(=O)N[C@@H](CCC(=O)O)C(=O)N[C@@H](CCC(=O)O)C(=O)N[C@@H](CO)C(=O)N[C@@H](CC(C)C)C(=O)N[C@@H](CCCCN)C(=O)N[C@@H](CCC(=O)O)C(=O)N[C@@H](CO)C(=O)NCC(N)=O [10a] ({FITC-βAla}-GEDEEELIRKAIEESLKESG-NH2)	0.3 kJ mol^–1

Reference: publication PMC11494501, “AlphaFold Ensemble Competition Screens Enable Peptide Binder Design with Single-Residue Sensitivity” (ACS Chemical Biology, 2024)
